Reference: patent publication US12521388B2, “Substituted dipyrido[1,2-a:1′,2′-d]pyrazines for treating viral infections” (Gilead Sciences, Inc., priority 2013, dated 2026)
Read-outs that look alike come from different tables or passages of the source.

Assays:
[1] = Cytotoxicity in MT4 cells (mock-infected) in the antiviral assay; type: cell-based; details: human
Description: (§1) For the antiviral assay utilizing MT4 cells, 0.4 μL of […] test concentration of 3-fold serially diluted compound in DMSO was added to 40 μL of cell growth medium (RPMI 1640, 10% FBS, 1% penicilline/Streptomycine, 1% L-Glutamine, 1% HEPES) in each well of 384-well assay plates (10 concentrations) in quidruplicate. 1 mL aliquots of 2×10^6 MT4 cells are pre-infected for 1 and 3 hours respectively at 37° C. with 25 μL (MT4) or of either cell growth medium (mock-infected) or a fresh 1:250 dilution of an HIV-IIIb concentrated ABI stock (0.004 m.o.i. for MT4 cells). Infected and uninfected cells are diluted in cell growth medium and 35 μL of 2000 (for MT4) cells is added to each well of the assay plates. Assay plates were then incubated in a 37° C. incubator. After 5 days of incubation, 25 μL of 2× concentrated CellTiter-Glo™ Reagent (catalog #G7573, Promega Biosciences, Inc., Madison, WI) was added to each well of the assay plate. Cell lysis was carried out by incubating at room temperature for 2-3 minutes, and then chemiluminescence was read using the Envision reader (PerkinElmer).

HIV-IIIb = test: Antiviral assay in MT4 cells; type: cell-based; details: Human immunodeficiency virus 1, 120 h; MT4 cells infected with HIV-IIIb (0.004 m.o.i.), 5 days incubation, CellTiter-Glo; average over time; read-out: EC50 nM in MT-4
Description: as §1

[2] = MT4 cells (mock-infected), MT4 cells, 5 days incubation, CellTiter-Glo, average over time, read-out: CC50 nM in MT-4

Structure (SMILES) | EC50 (HIV-IIIb) | CC50 at 5 days [1, 2] | CC50 at 5 days [1]
O=C(NCc1ccc(F)cc1F)c1cn2c(c(O)c1=O)C(=O)N1C[C@H]3C[C@]1(C2)C3 [Compound 1] | 3.5 nM | 49900 nM | –
O=C(NCc1ccc(F)cc1F)c1cn2c(c(O)c1=O)C(=O)N1C[C@H]3CC[C@@]1(CC3)C2 [Compound 2] | 4.4 nM | 53200 nM | –
O=C(NCc1ccc(F)cc1F)c1cn2c(c(O)c1=O)C(=O)N1C3CCC1(CC3)C2 [Compound 3] | 1.9 nM | – | 26200 nM
O=C(NCc1ccc(F)cc1F)c1cn2c(c(O)c1=O)C(=O)N1C[C@@H]3CCC[C@]1(C3)C2 [Compound 4] | 1.6 nM | 11000 nM | –
O=C(NCc1cccc(Cl)c1F)c1cn2c(c(O)c1=O)C(=O)N1C[C@H]3CCC[C@@]1(C3)C2 [Compound 8] | 2.3 nM | 5300 nM | –
C[C@@]12CCC[C@]3(Cn4cc(C(=O)NCc5c(F)cc(F)cc5F)c(=O)c(O)c4C(=O)N3C1)C2 [Compound 9] | 1.4 nM | 8660 nM | –
O=C(NCc1ccc(F)cc1F)c1cn2c(c(O)c1=O)C(=O)N1C[C@@H]3CC[C@]1(C3)C2 [Compound 10, (3R,12aS)—N-(2,4-difluorobenzyl)-7-hydroxy-6,8-dioxo-2,3,4,6,8,12-hexahydro-1H-3,12a-methanodipyrido[1,2-a:1′,2′-d]pyrazine-9-carboxamide] | 2.3 nM | 24000 nM | –
O=C(NCc1ccc(F)cc1F)c1cn2c(c(O)c1=O)C(=O)N1C[C@H]3CC[C@@]1(C3)C2 [Compound 11] | 3.2 nM | 27900 nM | –
C[C@@H](NC(=O)c1cn2c(c(O)c1=O)C(=O)N1C3CCC1(CC3)C2)c1c(F)cc(F)cc1F [Compound 14] | 6.2 nM | 13200 nM | –
O=C(NCc1c(F)cc(F)cc1F)c1cn2c(c(O)c1=O)C(=O)N1C3CCC1(CC3)C2 [Compound 15] | 2.3 nM | 24000 nM | –

Now from value to compound, other results behind:

EC50 (HIV-IIIb) | Structure (SMILES) | CC50 at 5 days [1, 2] | CC50 at 5 days [1]
1.3 nM | O=C(NCc1c(F)cc(F)cc1F)c1cn2c(c(O)c1=O)C(=O)N1C[C@@H]3CCC[C@]1(C3)C2 [Compound 5] | 10600 nM | –
2.6 nM | O=C(NCc1ccc(F)cc1F)c1cn2c(c(O)c1=O)C(=O)N1C[C@H]3CCC[C@@]1(C3)C2 [Compound 6] | 9660 nM | –
2.8 nM | O=C(NCc1c(F)cc(F)cc1F)c1cn2c(c(O)c1=O)C(=O)N1C[C@H]3CCC[C@@]1(C3)C2 [Compound 7] | 13000 nM | –
3.2 nM | O=C(NCc1c(F)cc(F)cc1F)c1cn2c(c(O)c1=O)C(=O)N1C[C@H]3CC[C@@]1(C3)C2 [Compound 12] | 53200 nM | –
1.7 nM | O=C(NCc1c(F)cc(F)cc1F)c1cn2c(c(O)c1=O)C(=O)N1C[C@@H]3CC[C@]1(C3)C2 [Compound 13] | 24300 nM | –
